Data from PubChem BioAssay (NCI).
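Results reflect a 48-hour exposure of cells in 96-well plates to compound at five concentrations. TGI marks complete inhibition of growth.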

What was measured:
Experiment in all cases: DTP human tumour cell line panel, 48 h
HL-60(TB) leukemia = system: HL-60(TB) leukemia
K-562 leukemia = system: K-562 leukemia
786-0 renal = system: 786-0 renal
RXF 393 renal = system: RXF 393 renal
MALME-3M melanoma = system: MALME-3M melanoma
NCI-H460 lung = system: NCI-H460 lung
MDA-N = system: MDA-N
EKVX NSCLC = system: EKVX NSCLC
SK-OV-3 ovarian = system: SK-OV-3 ovarian
IGROV1 ovarian = system: IGROV1 ovarian
SK-MEL-5 melanoma = system: SK-MEL-5 melanoma

## CCOC(=O)CSc1nnc(C(Sc2nc(-c3ccccc3)c(-c3ccccc3)[nH]2)C(C)C)n1-c1ccccc1 (centres undefined)
HL-60(TB) leukemia
  TGI: > 31.6 µM
K-562 leukemia
  TGI: > 100 µM
786-0 renal
  TGI: > 31.6 µM
RXF 393 renal
  TGI: 67.1 µM
MALME-3M melanoma
  TGI: 28.3 µM
NCI-H460 lung
  TGI: > 31.6 µM
MDA-N
  TGI: > 100 µM
EKVX NSCLC
  TGI: > 31.6 µM
SK-OV-3 ovarian
  TGI: > 10 µM
IGROV1 ovarian
  TGI: > 10 µM
SK-MEL-5 melanoma
  TGI: > 10 µM

## Cc1ccc(/C(O)=C/C(=O)C(=O)NN=C(c2ccccc2)c2ccccc2)cc1
HL-60(TB) leukemia
  TGI: > 100 µM
K-562 leukemia
  TGI: > 100 µM
786-0 renal
  TGI: > 100 µM
RXF 393 renal
  TGI: > 100 µM
MALME-3M melanoma
  TGI: > 100 µM
NCI-H460 lung
  TGI: > 100 µM
MDA-N
  TGI: > 100 µM
EKVX NSCLC
  TGI: > 100 µM
SK-OV-3 ovarian
  TGI: > 100 µM
IGROV1 ovarian
  TGI: > 100 µM
SK-MEL-5 melanoma
  TGI: > 100 µM

## O[C@H]1[C@H](O)[C@@H](O)[C@@]2(O)C[C@@H](O)[C@@H]1N2
HL-60(TB) leukemia
  TGI: > 100 µM
K-562 leukemia
  TGI: > 100 µM
786-0 renal
  TGI: > 100 µM
RXF 393 renal
  TGI: > 100 µM
MALME-3M melanoma
  TGI: > 100 µM
NCI-H460 lung
  TGI: > 100 µM
MDA-N
  TGI: > 100 µM
EKVX NSCLC
  TGI: > 100 µM
SK-OV-3 ovarian
  TGI: > 100 µM
IGROV1 ovarian
  TGI: > 100 µM
SK-MEL-5 melanoma
  TGI: > 100 µM

## CCOc1cc(NC(C)=O)ccc1C(=O)NN1C(=O)C(Cl)C1c1ccco1 (centres undefined)
HL-60(TB) leukemia
  TGI: 43.4 µM
K-562 leukemia
  TGI: 51.3 µM
786-0 renal
  TGI: 30.8 µM
RXF 393 renal
  TGI: 29 µM
MALME-3M melanoma
  TGI: 24.6 µM
NCI-H460 lung
  TGI: 35.1 µM
MDA-N
  TGI: 36.1 µM
EKVX NSCLC
  TGI: 36.2 µM
SK-OV-3 ovarian
  TGI: 38.2 µM
IGROV1 ovarian
  TGI: 28.8 µM
SK-MEL-5 melanoma
  TGI: 27.9 µM

## N#C/C(=C\c1c[nH]c2ccccc12)C(=O)c1ccc(O)c(O)c1
HL-60(TB) leukemia
  TGI: 59.5 µM
K-562 leukemia
  TGI: > 67 µM
786-0 renal
  TGI: > 62 µM
RXF 393 renal
  TGI: > 100 µM
MALME-3M melanoma
  TGI: > 78.8 µM
NCI-H460 lung
  TGI: > 100 µM
MDA-N
  TGI: > 100 µM
EKVX NSCLC
  TGI: > 100 µM
SK-OV-3 ovarian
  TGI: > 100 µM
IGROV1 ovarian
  TGI: > 89.4 µM
SK-MEL-5 melanoma
  TGI: > 100 µM

## CC(C)C1=CC23CCC4C(C)(C(=O)O)CCCC4(C)C2CC1C1C(=O)N(c2ccc(C(=O)O)cc2)C(=O)C13 (centres undefined)
HL-60(TB) leukemia
  TGI: > 100 µM
K-562 leukemia
  TGI: > 100 µM
786-0 renal
  TGI: > 100 µM
RXF 393 renal
  TGI: > 100 µM
MALME-3M melanoma
  TGI: > 100 µM
NCI-H460 lung
  TGI: > 100 µM
MDA-N
  TGI: > 100 µM
EKVX NSCLC
  TGI: > 100 µM
SK-OV-3 ovarian
  TGI: > 100 µM
IGROV1 ovarian
  TGI: > 100 µM
SK-MEL-5 melanoma
  TGI: > 100 µM

## Fc1ccccc1C1SCc2nc3cc4ccccc4cc3n21 (centres undefined)
HL-60(TB) leukemia
  TGI: > 100 µM
K-562 leukemia
  TGI: > 100 µM
786-0 renal
  TGI: 51.5 µM
RXF 393 renal
  TGI: 80.1 µM
MALME-3M melanoma
  TGI: > 100 µM
NCI-H460 lung
  TGI: > 100 µM
MDA-N
  TGI: > 100 µM
EKVX NSCLC
  TGI: > 100 µM
SK-OV-3 ovarian
  TGI: > 100 µM
IGROV1 ovarian
  TGI: > 100 µM
SK-MEL-5 melanoma
  TGI: > 100 µM

## c1ccc(CSCCc2ccncc2)cc1
HL-60(TB) leukemia
  TGI: 89.6 µM
K-562 leukemia
  TGI: > 100 µM
786-0 renal
  TGI: > 100 µM
RXF 393 renal
  TGI: > 100 µM
MALME-3M melanoma
  TGI: > 100 µM
NCI-H460 lung
  TGI: > 100 µM
MDA-N
  TGI: > 100 µM
EKVX NSCLC
  TGI: > 100 µM
SK-OV-3 ovarian
  TGI: > 100 µM
IGROV1 ovarian
  TGI: > 100 µM
SK-MEL-5 melanoma
  TGI: > 100 µM

## C[C@H]1C=C2[C@@H]3CC(C)(C(=O)O)CC[C@]3(C)CC[C@]2(C)[C@]2(C)CC[C@H]3C(C)(C)[C@@H](OC(=O)c4cccc5c(=O)c6ccccc6[nH]c45)CC[C@]3(C)[C@@H]12 (some centres undefined)
HL-60(TB) leukemia
  TGI: > 100 µM
K-562 leukemia
  TGI: > 100 µM
786-0 renal
  TGI: > 100 µM
RXF 393 renal
  TGI: > 100 µM
MALME-3M melanoma
  TGI: > 100 µM
NCI-H460 lung
  TGI: > 100 µM
MDA-N
  TGI: > 100 µM
EKVX NSCLC
  TGI: > 100 µM
SK-OV-3 ovarian
  TGI: > 100 µM
IGROV1 ovarian
  TGI: > 100 µM
SK-MEL-5 melanoma
  TGI: > 100 µM
